In patent US20190376971A1, “Compositions and Methods for the Assessment of Drug Target Occupancy for Bruton's Tyrosine Kinase” (Acerta Pharma B.V., priority 2017, published 2019):

Experiments:
[1] = target: T1, BTK (Homo sapiens, UniProt Q06187); experiment: BTK IMAP (immobilized metal ion affinity-based fluorescence polarization) assay; assay type: biochemical; design: endogenous in cells; host or cells: Ramos B cells (Ramos.2G6.4C10); conditions: 5 μM ATP, 60 min pre-incubation, read-out: IC50 for BTK inhibition
Experimental: In summary, BTK enzyme activity is measured using the IMAP (immobilized metal ion affinity-based fluorescence polarization) assay as outlined below. […] After 60 minutes of incubation at room temperature in the dark, the FP signal is read. Fluorescence at 535 nm is measured using parallel and perpendicular filters to determine differences in rotation due to binding of the phosphorylated substrate peptide to the beads. Values are calculated as a percentage of the difference in readout (ΔmPi) of the controls with and without ATP.
Inhibition of the activity of the protein kinase BTK can be measured with the assay described in this protocol. […] The method is based on IMAP, which is a homogeneous fluorescence polarization (FP) assay based on affinity capture of phosphorylated peptide substrates. […]
Target sequence in this assay (Q06187 whole entry): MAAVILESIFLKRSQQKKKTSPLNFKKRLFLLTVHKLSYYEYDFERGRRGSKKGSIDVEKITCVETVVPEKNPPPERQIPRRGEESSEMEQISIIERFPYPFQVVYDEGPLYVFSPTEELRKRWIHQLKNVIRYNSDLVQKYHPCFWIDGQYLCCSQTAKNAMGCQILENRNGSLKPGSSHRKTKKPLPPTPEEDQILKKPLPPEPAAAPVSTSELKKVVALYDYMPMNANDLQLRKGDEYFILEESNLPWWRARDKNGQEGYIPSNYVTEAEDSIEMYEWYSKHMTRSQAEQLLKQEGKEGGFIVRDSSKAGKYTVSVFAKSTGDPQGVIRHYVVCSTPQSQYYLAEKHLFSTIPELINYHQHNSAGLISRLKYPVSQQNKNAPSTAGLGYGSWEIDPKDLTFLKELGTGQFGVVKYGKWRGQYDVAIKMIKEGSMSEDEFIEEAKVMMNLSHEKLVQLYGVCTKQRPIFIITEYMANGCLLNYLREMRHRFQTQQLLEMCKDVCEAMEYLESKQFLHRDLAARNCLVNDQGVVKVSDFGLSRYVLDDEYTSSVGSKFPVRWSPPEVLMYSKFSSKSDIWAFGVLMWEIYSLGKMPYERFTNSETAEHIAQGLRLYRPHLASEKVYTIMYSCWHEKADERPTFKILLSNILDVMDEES

[2] = target: T1, BTK; experiment: Binding of biotin probes to recombinant BTK, Western blot with Streptavadin-HRP; conditions: PBS, lysis buffer 1 or lysis buffer 2
Experimental: For the biotin probes (such as Formula (3) and Formula (4)), samples are run using SDS-PAGE gel, followed by transferring the protein to a polyvinylidene fluoride (PVDF) membrane by Western blotting. Subsequently, the blot is blocked overnight at 4° C. in TBS-T (10 mM TRIS pH 7.4, 100 mM NaCl, 0.1% Tween 20)+2.5% (w/v) skimmed milk powder). The blot is washed 4× with TBS-T and then incubated with Streptavadin-HRP for 1 hour at room temperature. The blot is washed again 4× with TBS-T before adding the chemiluminescent substrate, followed by measurement of the chemiluminescence signal.
SDS-PAGE procedures are known to those of ordinary skill in the art. A non-limiting example of a SDS-PAGE procedure is as follows: • 1. Add 1.1 μL of probe to 10 μL of each sample (recombinant BTK or cell lysate); final probe concentration 0.1 μM. • 2. Incubate 2 hour at room temperature. • 3. Add 4 μL sample buffer/DTT (200 μM) and incubate for 5 minutes at 95° C. • 4. Vortex and keep on ice until loading on gel. • 5. […] For the samples on gel with the fluorescent probe, the gels are measured directly using an imager suitable for measuring the fluorescent label on the probes (e.g., E tan Imager; GE Healthcare (Cy2: 480/30 excitation, 530/40 emission, Cy3: 544 excitation, 570 emission). • 9. For the biotin labeled probes, the gel is blotted to a PVDF membrane, using the Western blot procedure below. […]
Target sequence in this assay (Q06187 whole entry, species assumed): as the sequence (Q06187 whole entry) above

[3] = target: T1, BTK; experiment: Binding of BODIPY/fluorescent probes to recombinant BTK, SDS-PAGE in-gel fluorescence; conditions: probe 0.1 μM, 2 hours
Experimental: To test different BTK target occupancy probes and lysis buffers, probes were incubated with recombinant BTK protein for 2 hours and subsequently run using sodium dodecyl sulfate polyacrylamide gel electrophoresis (SDS PAGE). When using the boron-dipyrromethene (BODIPY) tagged probes (such as Formula (5) and Formula (6)), the gel is measured directly using a fluorescence imager. BTK probe (final concentration 0.1 μM) is incubated with 125 ng BTK for 2 hours at room temperature. Afterwards, sample buffer is added and run on a SDS-PAGE gel. Fluorescent probes such as Formula (5) and Formula (6) are quantified in gel using the E tan Imager from GE Healthcare, suitable for the emission and detection of fluorescent signal for BODIPY tags.
SDS-PAGE procedures are known to those of ordinary skill in the art. A non-limiting example of a SDS-PAGE procedure is as follows: • 1. Add 1.1 μL of probe to 10 μL of each sample (recombinant BTK or cell lysate); final probe concentration 0.1 μM. • 2. Incubate 2 hour at room temperature. • 3. Add 4 μL sample buffer/DTT (200 μM) and incubate for 5 minutes at 95° C. • 4. Vortex and keep on ice until loading on gel. • 5. Spin down shortly and load 15 μL on a 12 slot Novex gradient gel (4-12% Bis-Tris gel). • 6. Run in NuPage MOPS SDS running buffer. • 7. After running the samples on gel, remove the gel from the surelock holder. • 8. For the samples on gel with the fluorescent probe, the gels are measured directly using an imager suitable for measuring the fluorescent label on the probes (e.g., E tan Imager; GE Healthcare (Cy2: 480/30 excitation, 530/40 emission, Cy3: 544 excitation, 570 emission). • 9. For the biotin labeled probes, the gel is blotted to a PVDF membrane, using the Western blot procedure below.
Target sequence in this assay (Q06187 whole entry, species assumed): as the sequence (Q06187 whole entry) above

[4] = lysis buffer 2 (1% Triton X100)

Compound | IC50 [1] | signal of biotin probe bound to BTK (Streptavadin-HRP chemiluminescence) [2] | binding to recombinant BTK (fluorescence signal in gel) ([3]; PBS or lysis buffer 1) | binding to recombinant BTK (fluorescence signal in gel) [3, 4]
COc1ccc(-c2ccc3n2[B-](F)(F)[N+]2=C(C)C(CCC(=O)NCCN4CCN(C/C=C/C(=O)N5CCC[C@H]5c5nc(-c6ccc(C(=O)Nc7ccccn7)cc6)c6c(N)nccn56)CC4)=C(C)C2=C3)cc1 [Formula (4)] | 1.5 nM |  |  | 
Nc1nccn2c([C@@H]3CCCCN3C(=O)/C=C/CN3CCN(CCNC(=O)CCCC(=O)NCCCOCCOCCOCCCNC(=O)CCCC[C@@H]4SC[C@@H]5NC(=O)N[C@@H]54)CC3)nc(-c3ccc(C(=O)Nc4ccccn4)cc3)c12 [Formula (3), N-[3-[2-[2-[3-[5-[(3aS,4S,6aR)-2-oxo-1,3,3a,4,6,6a-hexahydrothieno[3,4-d]imidazol-4-yl]pentanoylamino]propoxy]ethoxy]ethoxy]propyl]-N′-[2-[4-[(E)-4-[(2S)-2-[8-amino-1-[4-(2-pyridylcarbamoyl)phenyl]imidazo[1,5-a]pyrazin-3-yl]-1-piperidyl]-4-oxo-but-2-enyl]piperazin-1-yl]ethyl]pentanediamide] | 3.4 nM | stronger signal |  | 
Cc1cc(C)n2c1C=C1C=CC(CCC(=O)NCCN3CCN(C/C=C/C(=O)N4CCC[C@H]4c4nc(-c5ccc(C(=O)Nc6ccccn6)cc5)c5c(N)nccn45)CC3)=[N+]1[B-]2(F)F [Formula (5)] |  |  | clear binding | minimal
Nc1nccn2c([C@@H]3CCCN3C(=O)/C=C/CN3CCN(CCNC(=O)CCCC(=O)NCCCOCCOCCOCCCNC(=O)CCCC[C@@H]4SC[C@@H]5NC(=O)N[C@@H]54)CC3)nc(-c3ccc(C(=O)Nc4nccs4)cc3)c12 [Formula (6)] |  |  | clear binding | no detectable binding
